How the values were obtained:
[1] = test system: advanced gastro-esophageal cancer; conditions: multiply pre-treated late-stage patients, single agent; cited from earlier work
[2] = In vivo pharmacokinetic analysis, serum measured by peptide ELISA with 2c mimotope peptide; conditions: approximately 50 mg/kg intravenously, Balb/cJ mice
Experimental: After 8, 24, 48, 72, 144, 168 and 192 hrs, blood samples were taken from two mice of each group for serum preparation. The serum samples were to be measured in the linear range of the assay (approximately 0.3-300 ng/ml). […] An IMAB362 standard row in presence of murine Balb/cJ control serum was assayed in parallel (0-25 ng/ml). The standard raw data were fitted by linear regression to calculate the antibody concentration from the mouse samples at the respective timepoint. Before the pharmakokinetic analysis, a permission for the animal experiment was obtained from the relevant local authority.

IMAB362 [3] = assay: Peptide ELISA, biotinylated peptides on streptavidin plates; type: binding
Experimental: For the detection of IMAB362, the CLDN18.2 mimicking peptides were immobilized on streptavidin plates (Nunc) in a concentration of 0.75 μg/ml in PBS buffer for 1 hour at 37° C. Subsequently, the plate was washed three times with washing buffer (0.01% Tween-20 in PBS buffer) before it was blocked with 3% BSA in PBS overnight at 4° C. To detect IMAB362, the blocked plate was washed again three times with washing buffer followed by the addition of IMAB362 and incubation for 30 min at 37° C. After another washing step, it was incubated with an alkaline phosphatase conjugated anti-human Fc antibody (Jackson Immuno Research) for additional 30 min at 37° C. Finally, the plate was washed again before being incubated with 1.5 mg/ml of the substrate PNPP (para-nitrophenyl phosphate) in appropriate substrate buffer (1 M Diethanolamine, 0.05 mM MgCl2, 0.01% sodium azide, pH 9.8) for 30 min at RT in the dark. 3 M KOH was used to stop the enzymatic reaction. Absorbance was measured with a microplate reader (Infinite M200, Tecan). For dual wavelength analysis, 405 nm was chosen as measurement wavelength and 492 nm as reference wavelength. Absorbance values were calculated by subtraction of the measured values for the reference wavelength and for the measurement wavelength. Calculation of apparent KD values was done by fitting the data with Sigma Plot 10 using a two-site saturation binding model. […]

IMAB362 [4] = assay: Peptide microarray incubation with IMAB362; type: binding; conditions: IMAB362 1 μg/ml; percentage of fluorescence assay signal of the hit peptide
Experimental: Peptides were synthesized and printed on peptidemicroarray slides essentially as described previously [Funkner, A. et al., J. Mol. Biol. 2013, 425, 1340-1362]. In brief, the peptides were synthesized using SPOT synthesis [Wenschuh, H. et al., Biopolymers 2000, 55, 188-206] cleaved from the solid support and cyclized (50% DMSO, PBS buffer pH 7-8, RT, 16 hours). Subsequently, all peptides were chemoselectively immobilized on functionalized glass slides as described earlier [Funkner, A. et al., J. Mol. Biol. 2013, 425, 1340-1362]. Each peptide was deposited on the microarray in triplicates.
The microarrays were incubated with 1.0 or 0.1 μg/ml IMAB362 in an HS 4800 microarray processing station (Tecan) for two hours at 30° C., followed by incubation with 1.0 μg/ml fluorescently labelled secondary antibody (Alexa647 anti-human Fc antibody; Jackson Immuno Research). Washing steps were performed prior every incubation step with 0.1% Tween-20 in 1×TBS. After the final incubation step the microarrays were washed (0.05% Tween-20 in 0.1×SSC) and dried in a stream of nitrogen. Each microarray was scanned using a GenePix Autoloader 4200AL (Molecular Devices, Pixel size: 10 μm). Signal intensities were evaluated using GenePix Pro 7.0 analysis software (Molecular Devices). For each peptide, the mean of the three triplicates was calculated.
Peptide microarrays were used for structure-activity-relationship (SAR) analysis and optimization of peptide binding affinity to IMAB362. For assay setup three variants of each cyclic hit peptide (sequences 1, 2 and 3, Table 1) were prepared differing in a) the immobilization site, b) the linker nature and c) the degree of conformational restriction (cyclic vs. linear). All peptides were chemically synthesized in a stepwise fashion from the C- to the N-terminus by the high-throughput SPOT synthesis approach [Wenschuh, H. et al., Biopolymers 2000, 55, 188-206] applying a cellulose membrane as solid support. After cleavage and isolation, the peptides were cyclised through disulfide formation between two internal Cys residues and immobilized to the microarray. Covalent attachment to the microarray was performed through a reactive moiety on either the N- or C-terminus of the peptides allowing chemoselective and directed immobilization through both ends of the peptides. Subsequently, peptide loaded microarrays were incubated with 1.0 or 0.1 μg/ml IMAB362 followed by incubation with 1 μg/ml fluorescently labelled secondary antibody, scanning and data evaluation.
Target sequence in this assay (as listed by the source): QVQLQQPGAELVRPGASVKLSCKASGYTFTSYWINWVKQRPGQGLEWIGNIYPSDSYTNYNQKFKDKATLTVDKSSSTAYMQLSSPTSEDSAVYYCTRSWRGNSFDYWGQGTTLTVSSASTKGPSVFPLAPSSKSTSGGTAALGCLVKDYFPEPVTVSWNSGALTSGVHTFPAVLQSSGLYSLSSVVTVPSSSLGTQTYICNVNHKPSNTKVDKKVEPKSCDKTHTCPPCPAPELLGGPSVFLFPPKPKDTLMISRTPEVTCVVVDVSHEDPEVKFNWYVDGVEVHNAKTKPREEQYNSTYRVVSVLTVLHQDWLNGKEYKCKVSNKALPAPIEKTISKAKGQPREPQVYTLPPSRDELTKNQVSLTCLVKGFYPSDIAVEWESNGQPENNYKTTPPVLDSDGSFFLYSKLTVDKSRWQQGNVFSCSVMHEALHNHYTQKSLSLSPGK
Target sequence in this assay (as listed by the source): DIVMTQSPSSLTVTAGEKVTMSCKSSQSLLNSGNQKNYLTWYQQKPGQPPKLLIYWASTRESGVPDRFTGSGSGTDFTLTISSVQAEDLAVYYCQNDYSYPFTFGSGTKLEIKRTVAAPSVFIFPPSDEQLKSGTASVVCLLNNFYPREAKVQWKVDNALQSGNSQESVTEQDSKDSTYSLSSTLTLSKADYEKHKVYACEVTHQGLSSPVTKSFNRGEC

Molecule	% Affinity compared to hit peptide (IMAB362 [4]) [%]	also measured
IMAB362: highly tumor-specific monoclonal IgG1 antibody directed against Claudin 18 isoform 2 (CLDN18.2)		antitumoral activity [1]: antitumoral activity; tolerability [1]: have shown tolerability; IMAB362 concentration in mice ([2]; after 8 hours): approximately 800 μg/ml; IMAB362 concentration in mice ([2]; at the end of the study (192 hrs)): approximately 350 μg/ml
CC(C)[C@@H]1NC(=O)CNC(=O)[C@@H]2CCCN2C(=O)[C@H](Cc2ccc(O)cc2)NC(=O)CNC(=O)[C@H](Cc2ccc(O)cc2)NC(=O)[C@H](Cc2c[nH]cn2)NC(=O)[C@@H](NC(=O)[C@H](C)NC(=O)CCC(=O)NCCCOCCOCCOCCCNC(=O)CCCC[C@@H]2SC[C@@H]3NC(=O)N[C@@H]32)CSSC[C@@H](C(=O)NCC(=O)O)NC1=O [Peptide 2c]		binding curves of IMAB362 to peptide when antibody diluted with human serum (IMAB362 [3]; up to 20% human serum, background signal slightly increased at high serum concentrations): looked similar; binding of IMAB362 to peptide in the presence of mouse serum (IMAB362 [3]; up to 20% mouse serum): almost not affected
ACHLNYPGYCG [Cyclopeptide-GGS-K(X) Seq. 1]	100	
ACHLNYPGYCG [X-Ttds-Linearpeptide Seq. 1]	0	
ACHYSYPGVCG [Cyclopeptide-GGS-K(X) Seq. 2]	100	
ACHLGYPGRCG [X-Ttds-Linearpeptide Seq. 3]	0.1	
ACHLGYPGRCG [Cyclopeptide-GGS-K(X) Seq. 3]	100	
ACHYSYPGVCG [X-Ttds-Linearpeptide Seq. 2]	0	
